Tested on: Glycine max
Test: Activity of soybean recombinant SMT1

For `CC(C)=CCC[C@@H](C)[C@H]1CC[C@@]2(C)[C@@H]3CC[C@H]4C(C)(C)[C@@H](O)CC[C@@]45C[C@@]35CC[C@]12C`, the Km was 30 µM and the kcat was 0.01 s⁻¹.
